How the values were obtained:
[1] = Pharmacokinetics of tramadol and O-desmethyl tramadol in SD rats with or without crizotinib; conditions: single dose of crizotinib 45 mg/kg, tramadol 20 mg/kg
Excerpt: Ultra-performance liquid chromatography-tandem mass spectrometry (UPLC-MS/MS) was utilized to measure the concentration of both tramadol and O-desmethyl tramadol. Separation was achieved using a Waters Acquity UPLC BEH C18 column, with dimensions of 2.1 mm × 50 mm and 1.7-µm particle size (Waters Corp., Milford, MA, USA), and quantitation was completed using a Waters XEVO TQD triple quadruple mass spectrometer. The mobile phase was composed of 0.1% formic acid (A) and ACN (B), and the gradient elution was carried out with a flow rate of 0.4 mL/min, following the procedure: 90–10% A (0–1.4 min), 10–90% A (1.4–1.5 min), and 90% A (1.5–2.0 min). Positive mode was used to detect the analytes with the following transitions: m/z 264.2 →58.0, m/z 250.2 →58.2, and m/z 285.0 →154.0 for tramadol, O-desmethyl tramadol, and diazepam (used as an internal standard, IS), respectively. The collision energy was 20 V for tramadol and O-desmethyl tramadol, and 25 V for diazepam. The standard for tramadol and O-desmethyl tramadol were dissolved in a small amount of DMSO (the concentration was 1 mg/mL) then diluted with acetonitrile (the final concentration was 1 ng/mL–1,000 ng/mL). Diazepam was diluted with methanol gradually to 500 ng/mL).
SD male rats (280 ± 15 g) were purchased from the Shanghai Animal Experimental Center. Before the experiment, the rats were kept in the animal room for two weeks with adequate water and food in order to adapt to the new environment. The room temperature was kept at 20–25 °C and the humidity was kept at 50%–65%. The change period of light and dark conditions was 12 h, which simulates the change of day and night. All animal experiments were approved by the Ethics Committee of Wenzhou Medical University (Approval number: xmsq2022-0621).
Generally speaking, only when at least five or more animals are involved in the experiment can the results be convincing. Thus, twenty SD rats were randomly divided into four groups with five animals per group: group A received a single dose of 20 mg/kg of tramadol; group B received a single dose of 45 mg/kg of crizotinib and 20 mg/kg of tramadol; group C received multiple doses of 0.5% carboxymethylcellulose sodium salt (CMC-Na) for 7 days and a single dose of 20 mg/kg of tramadol; and group D received multiple doses of 45 mg/kg of crizotinib for 7 days and a single dose of 20 mg/kg of tramadol. Prior to the experiment, all rats were fasted for 12 h but allowed free access to water. Once the experiment began, 0.5% CMC-Na and crizotinib were administered to groups C and D for 7 days, respectively, then to groups A and B on the last day of the experiment. After 30 min, all rats were orally administered 20 mg/kg of tramadol. Blood samples were collected from the tail vein at 5 min, 15 min, 30 min, 1 h, 2 h, 3 h, 4 h, 6 h, 8 h, 10 h, 12 h, and 24 h following tramadol administration. […] The samples were centrifuged at 2400 × g for 10 min to obtain serum. Each 50 µL serum was mixed with 150 µL ACN and 20 µL IS (500 ng/mL). After vortexing for 2 min and centrifugation at 16200 × g for 10 min at 4 °C, the supernatant was obtained, then we used UPLC-MS/MS analysis to detect the concentration of tramadol and O-desmethyl tramadol. After the experiment, all the animals were euthanized by 5% isoflurane inhalation anesthesia.
The Michaelis–Menten, IC50, and Lineweaver-Burk plots were generated using GraphPad Prism 6.0 software (GraphPad Software, Boston, MA, USA) with corresponding values for Km, IC50, and Ki (inhibition constant).

[2] = Serum biochemical analysis (ALT, AST); assay type: in vivo, Sprague-Dawley rats; conditions: vs control
Procedure: (§1) Nine rats were randomly divided into three groups (n = 3): group E received 0.5% CMC-Na for 7 days; group F received 45 mg/kg crizotinib for 6 days; and group G received 45 mg/kg of crizotinib for 7 days. […] The blood, liver, kidney, and small intestine were harvested within 10 min and flash-frozen in liquid nitrogen before being transferred to −80 °C for later use.
Serum was collected after centrifugation of blood sample at 2400 × g for 5 min at 4 °C. The levels of ALT and AST were detected according to the protocol of ALT and AST activity assay kits.

[3] = test system: liver, kidney and small intestine; test: Morphological examination (H&E staining) of liver, kidney and small intestine; assay type: in vivo, Sprague-Dawley rats; conditions: crizotinib 45 mg/kg, single dose or 7 consecutive days; vs control group E
Procedure: […] […] The blood, liver, kidney, and small intestine were harvested within 10 min and flash-frozen in liquid nitrogen before being transferred to −80 °C for later use.
Additionally, the tissues were fixed in 10% formalin solution and embedded in paraffin. Hematoxylin-eosin (H&E) staining was performed on paraffin sections, which had been dewaxed, dehydrated, and sealed with neutral gum. Pannoramic MIDI was then used to observe the tissues.

CYP3A2 = target: T1, CYP3A2 (Rattus norvegicus, UniProt P05183); test: Activity of CYP3A2 in liver microsomes of treated rats (midazolam probe); assay type: in vitro ADME; conditions: RLM from crizotinib-treated rats (45 mg/kg); midazolam 10 µM
T1 construct: All liver tissue samples were extracted into liver microsomes by homogenization and centrifugation; from tissue; host or cells: liver microsomes of Sprague-Dawley rats (control or dosed with crizotinib)
T1 sequence (P05183 1-504): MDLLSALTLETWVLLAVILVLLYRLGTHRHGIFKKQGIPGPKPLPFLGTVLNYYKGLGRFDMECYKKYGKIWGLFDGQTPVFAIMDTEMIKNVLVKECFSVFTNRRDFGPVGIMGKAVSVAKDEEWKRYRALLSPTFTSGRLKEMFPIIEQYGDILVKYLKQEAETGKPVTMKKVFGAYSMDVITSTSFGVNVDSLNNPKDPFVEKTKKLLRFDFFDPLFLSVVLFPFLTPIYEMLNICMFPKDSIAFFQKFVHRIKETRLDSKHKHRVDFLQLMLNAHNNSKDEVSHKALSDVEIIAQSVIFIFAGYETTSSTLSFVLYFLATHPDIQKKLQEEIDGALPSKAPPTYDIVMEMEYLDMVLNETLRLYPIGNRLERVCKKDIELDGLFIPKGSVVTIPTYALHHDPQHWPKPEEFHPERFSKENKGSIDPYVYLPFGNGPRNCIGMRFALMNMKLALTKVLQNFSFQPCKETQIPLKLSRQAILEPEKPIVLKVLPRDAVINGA
Procedure: as §1
All liver tissue samples were extracted into liver microsomes by homogenization and centrifugation, following the same operational steps as previously reported ([Simpson, 2010]). A new incubation system was established, which included 2 µL dextromethorphan or midazolam (the probe substrate of CYP2D1 or CYP3A2), 2 uL RLM (0.2 mg/mL) from different groups, 186 µL 1xPBS buffer, and 10 µL NADPH (1 mM). […] UPLC-MS/MS was used to detect the concentration of dextrorphan and 1-hydroxymidazolam to determine whether the activities of CYP2D1 and CYP3A2 in the liver were affected by crizotinib.

[4] = crizotinib 45 mg/kg for consecutive 7 days
[5] = crizotinib 45 mg/kg single dose

## C[C@@H](Oc1cc(-c2cnn(C3CCNCC3)c2)cnc1N)c1c(Cl)ccc(F)c1Cl [crizotinib]
[1]
  effect on pharmacokinetic parameters of O-desmethyl tramadol: no significant differences
[2]; [4]
  level of serum ALT: increased significantly
  level of serum AST: increased significantly
[2]; [5]
  level of serum ALT: no significant change
  level of serum AST: no significant change
[3]
  changes in cell morphology, size, arrangement, nuclear morphology of liver, kidney and small intestine (H&E): no obvious changes
CYP3A2
  metabolic rate of midazolam (CYP3A2 activity): decreased to different extents
